Holding throughout (test): relative viability (nuclei count vs DMSO), 5 days (fraction); higher = more cells survive
Compound in experiment [1]: CN(C)CC1=CC(=CC=C1)N=C(C2=CC=CC=C2)C3=C(NC4=C3C=CC(=C4)C(=O)N(C)C)O + CS(=O)(=O)N1CCN(Cc2cc3nc(-c4cccc5[nH]ncc45)nc(N4CCOCC4)c3s2)CC1 [Pictilisib] (partner 1 µM)
In a few lines:
(§1)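 Nuclei were stained with Hoechst during a one-step fixation (final 0.05% Triton X-100, 1% formaldehyde, 1 ug/ml Hoechst) carried out 5 days after dosing, then counted on 4× images. The cells, lung cancer lines in 1536-well plates, had been dosed by pin tool the day after seeding with one drug alone or a fixed anchor-drug dose plus five library-drug doses (not always all listed) in √10 steps. Relative viability is the nuclei count in treated wells divided by that in vehicle wells, and each value is the median of duplicate plates.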

Compound in experiment [2]: CN(C)CC1=CC(=CC=C1)N=C(C2=CC=CC=C2)C3=C(NC4=C3C=CC(=C4)C(=O)N(C)C)O + NC(=O)Nc1cc(-c2cccc(F)c2)sc1C(=O)N[C@H]1CCCNC1 [AZD7762] (partner 0.2 µM)
In a few lines:
as §1

Compound in experiment [3]: CN(C)CC1=CC(=CC=C1)N=C(C2=CC=CC=C2)C3=C(NC4=C3C=CC(=C4)C(=O)N(C)C)O + O=C(CCCCCCC(=O)Nc1ccccc1)NO [Vorinostat] (partner 1 µM)
In a few lines: as §1

Compound in experiment [4]: CN(C)CC1=CC(=CC=C1)N=C(C2=CC=CC=C2)C3=C(NC4=C3C=CC(=C4)C(=O)N(C)C)O + COc1cc2c(Oc3ccc(NC(=O)C4(C(=O)Nc5ccc(F)cc5)CC4)cc3F)ccnc2cc1OCCCN1CCOCC1 [Foretinib] (partner 0.25 µM)
In a few lines: as §1

On to NCI-H3122, for which the relative viability in experiment [1] (first compound 0.08 µM) worked out at 0.664; in experiment [1] (first compound 0.253 µM) it was 0.55; in experiment [1] (first compound 0.8 µM), 0.643; in experiment [1] (first compound 2.53 µM), 0.698; in experiment [1] (first compound 8 µM) it was 0.746; in experiment [2] (first compound 0.08 µM) it was 1.01. Besides, the relative viability in experiment [2] (first compound 0.253 µM) is 0.967; in experiment [2] (first compound 0.8 µM), 1.03; in experiment [2] (first compound 2.53 µM), 1.02; in experiment [2] (first compound 8 µM), 1.07; in experiment [3] (first compound 0.08 µM), 0.966; in experiment [3] (first compound 0.253 µM), 0.947. Moreover, the relative viability turned out to be 1.17 in experiment [3] (first compound 0.8 µM); 0.905 in experiment [3] (first compound 2.53 µM); 0.898 in experiment [3] (first compound 8 µM); 0.995 in experiment [4] (first compound 0.08 µM); 0.983 in experiment [4] (first compound 0.253 µM); 1.01 in experiment [4] (first compound 0.8 µM). Besides, the results for the relative viability in experiment [4] (first compound 2.53 µM) and in experiment [4] (first compound 8 µM) were 1.02 and 0.966, respectively.
As to NCI-H23, the relative viability in experiment [1] (first compound 0.08 µM) amounted to 0.45; in experiment [1] (first compound 0.253 µM) it was 0.42; in experiment [1] (first compound 0.8 µM), 0.565; in experiment [1] (first compound 2.53 µM), 0.512; in experiment [1] (first compound 8 µM), 0.475; in experiment [2] (first compound 0.253 µM), 0.243. In addition, the relative viability in experiment [2] (first compound 0.8 µM) came to 0.255; in experiment [2] (first compound 2.53 µM) it was 0.324; in experiment [2] (first compound 8 µM) it was 0.319; in experiment [3] (first compound 0.253 µM), 0.655; in experiment [3] (first compound 0.8 µM), 0.688; in experiment [3] (first compound 2.53 µM), 0.649. The relative viability in experiment [3] (first compound 8 µM) was 0.549; in experiment [4] (first compound 0.08 µM), 1.1; in experiment [4] (first compound 0.253 µM), 1.1; in experiment [4] (first compound 0.8 µM), 0.622; in experiment [4] (first compound 2.53 µM), 1.18; in experiment [4] (first compound 8 µM), 0.81.
For the cell line HOP-62, the relative viability in experiment [1] (first compound 0.08 µM) turned out to be 0.817; in experiment [1] (first compound 0.253 µM) it was 0.7; in experiment [1] (first compound 0.8 µM), 0.587; in experiment [1] (first compound 2.53 µM) it was 0.943; in experiment [1] (first compound 8 µM), 0.497; in experiment [2] (first compound 0.08 µM), 0.505. The relative viability in experiment [2] (first compound 0.253 µM) amounted to 0.566; in experiment [2] (first compound 0.8 µM), 0.496; in experiment [2] (first compound 2.53 µM), 0.693; in experiment [2] (first compound 8 µM) it was 0.673; in experiment [3] (first compound 0.08 µM) it was 0.624; in experiment [3] (first compound 0.253 µM), 0.659. The relative viability amounted to 0.643 in experiment [3] (first compound 0.8 µM); 0.7 in experiment [3] (first compound 2.53 µM); 0.46 in experiment [3] (first compound 8 µM); 1.08 in experiment [4] (first compound 0.08 µM); 1.01 in experiment [4] (first compound 0.253 µM); 1.12 in experiment [4] (first compound 0.8 µM). Besides, the relative viability in experiment [4] (first compound 2.53 µM) was 1.05; in experiment [4] (first compound 8 µM), 1.17.
On to ChaGo-K-1, for which the relative viability in experiment [1] (first compound 0.08 µM) worked out at 0.814; in experiment [1] (first compound 0.253 µM) it was 1.03; in experiment [1] (first compound 0.8 µM) it was 0.967; in experiment [1] (first compound 8 µM) it was 0.879; in experiment [2] (first compound 0.08 µM), 0.832; in experiment [2] (first compound 0.253 µM), 0.824. Further, the relative viability came to 0.902 in experiment [2] (first compound 0.8 µM); 0.822 in experiment [2] (first compound 2.53 µM); 0.896 in experiment [2] (first compound 8 µM); 0.753 in experiment [3] (first compound 0.08 µM); 0.737 in experiment [3] (first compound 0.253 µM); 0.795 in experiment [3] (first compound 0.8 µM). Moreover, the relative viability was 0.738 in experiment [3] (first compound 2.53 µM); 0.777 in experiment [3] (first compound 8 µM); 0.945 in experiment [4] (first compound 0.08 µM); 0.911 in experiment [4] (first compound 0.253 µM); 1.04 in experiment [4] (first compound 0.8 µM); 0.902 in experiment [4] (first compound 2.53 µM). In addition, in experiment [4] (first compound 8 µM), the relative viability came out at 0.771.
Consider NCI-H441, for which the relative viability in experiment [1] (first compound 0.08 µM) is 0.451; in experiment [1] (first compound 0.253 µM) it was 0.471; in experiment [1] (first compound 0.8 µM), 0.484; in experiment [1] (first compound 2.53 µM), 0.481; in experiment [1] (first compound 8 µM) it was 0.335; in experiment [2] (first compound 0.08 µM), 1.19. The relative viability in experiment [2] (first compound 0.253 µM) came out at 1.06; in experiment [2] (first compound 0.8 µM) it was 1; in experiment [2] (first compound 2.53 µM), 1.2; in experiment [2] (first compound 8 µM), 1.06; in experiment [3] (first compound 0.08 µM), 0.852; in experiment [3] (first compound 0.253 µM), 0.86. Moreover, the relative viability in experiment [3] (first compound 0.8 µM) was 1.01; in experiment [3] (first compound 2.53 µM) it was 0.613; in experiment [3] (first compound 8 µM), 0.805; in experiment [4] (first compound 0.08 µM) it was 1.11; in experiment [4] (first compound 0.253 µM), 1.01; in experiment [4] (first compound 0.8 µM), 1.24. For the same cell line, the relative viability is 1.17 in experiment [4] (first compound 2.53 µM) and 0.873 in experiment [4] (first compound 8 µM).
For LC-2-ad, the relative viability in experiment [1] (first compound 0.08 µM) was 0.453; in experiment [1] (first compound 0.253 µM), 0.383; in experiment [1] (first compound 0.8 µM), 0.442; in experiment [1] (first compound 2.53 µM), 0.521; in experiment [1] (first compound 8 µM), 0.231; in experiment [2] (first compound 0.08 µM), 0.842. For the same cell line, the relative viability in experiment [2] (first compound 0.253 µM) came to 0.819; in experiment [2] (first compound 0.8 µM), 0.812; in experiment [2] (first compound 2.53 µM) it was 0.829; in experiment [2] (first compound 8 µM) it was 0.867; in experiment [3] (first compound 0.08 µM), 0.694; in experiment [3] (first compound 0.253 µM), 0.699. For the same cell line, the relative viability in experiment [3] (first compound 0.8 µM) stood at 0.727; in experiment [3] (first compound 2.53 µM), 0.681; in experiment [3] (first compound 8 µM), 0.622; in experiment [4] (first compound 0.08 µM), 0.993; in experiment [4] (first compound 0.253 µM), 0.881; in experiment [4] (first compound 0.8 µM), 0.884. Besides, the relative viability turned out to be 0.919 in experiment [4] (first compound 2.53 µM) and 0.969 in experiment [4] (first compound 8 µM).
Turning to HCC-78, the relative viability in experiment [1] (first compound 0.08 µM) was 0.197; in experiment [1] (first compound 0.253 µM), 0.24; in experiment [1] (first compound 0.8 µM) it was 0.24; in experiment [1] (first compound 2.53 µM), 0.206; in experiment [1] (first compound 8 µM), 0.224; in experiment [2] (first compound 0.08 µM), 0.464. Besides, the relative viability was 0.772 in experiment [2] (first compound 0.253 µM); 0.568 in experiment [2] (first compound 0.8 µM); 0.639 in experiment [2] (first compound 2.53 µM); 0.831 in experiment [2] (first compound 8 µM); 0.455 in experiment [3] (first compound 0.08 µM); 0.668 in experiment [3] (first compound 0.253 µM). Further, the relative viability in experiment [3] (first compound 0.8 µM) was found to be 0.379; in experiment [3] (first compound 2.53 µM), 0.464; in experiment [3] (first compound 8 µM), 0.427; in experiment [4] (first compound 0.08 µM) it was 0.564; in experiment [4] (first compound 0.253 µM), 0.582; in experiment [4] (first compound 0.8 µM) it was 0.472. The relative viability was 0.61 in experiment [4] (first compound 2.53 µM) and 0.547 in experiment [4] (first compound 8 µM).

Source of the values: the supplement of paper PMC10307832.
